Reference: ChEMBL document CHEMBL1201862, “PubChem BioAssay data set” (2004)
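Grown in 96-well plates, cells were treated for 48 hours with each compound at five concentrations. Insufficient inhibition: endpoint recorded as highest concentration tested. Abbreviation: GI50, concentration required for 50% inhibition of growth.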 Activity calls are given as the source filed them. No stated cut-off is given here; in the data, active = GI50 up to about 1.1 µM and inactive = higher.

How the values were obtained:
Assay in all cases: DTP human tumour cell line panel, 48 h
[1] = tested on: RXF 393
[2] = tested on: HOP-92
[3] = tested on: NCI-H23
[4] = tested on: COLO 205
[5] = tested on: MDA-MB-231
[6] = tested on: MOLT-4
[7] = tested on: UACC-257
[8] = tested on: U-251
[9] = tested on: M14
[10] = tested on: 786-0
[11] = tested on: SK-MEL-2
[12] = tested on: MCF7
[13] = tested on: EKVX
[14] = tested on: DU-145
[15] = tested on: HCT-116
[16] = tested on: CCRF-CEM
[17] = tested on: PC-3
[18] = tested on: HL-60
[19] = tested on: OVCAR-3
[20] = tested on: SK-OV-3
[21] = tested on: T47D
[22] = tested on: UACC-62
[23] = tested on: SNB-19
[24] = tested on: NCI/ADR-RES
[25] = tested on: K562
[26] = tested on: IGROV-1
[27] = tested on: OVCAR-8
[28] = tested on: SK-MEL-5
[29] = tested on: KM12
[30] = tested on: NCI-H460
[31] = tested on: SK-MEL-28
[32] = tested on: RPMI-8226
[33] = tested on: UO-31
[34] = tested on: SW-620
[35] = tested on: OVCAR-4
[36] = tested on: SF-295
[37] = tested on: A498
[38] = tested on: MDA-MB-435
[39] = tested on: HCC 2998
[40] = tested on: SN12C
[41] = tested on: ACHN
[42] = tested on: A549
[43] = tested on: NCI-H226
[44] = tested on: HOP-62
[45] = tested on: TK-10
[46] = tested on: MDA-N
[47] = tested on: SNB-75
[48] = tested on: CAKI-1
[49] = tested on: Hs-578T
[50] = tested on: SR
[51] = tested on: Malme-3M
[52] = tested on: LOX IMVI
[53] = tested on: OVCAR-5
[54] = tested on: HT-29
[55] = tested on: SF-539
[56] = tested on: NCI-H522
[57] = tested on: SF-268
[58] = tested on: HCT-15

CCC(CCCC[C@@H]1CC[C@H]2CC(=O)C[C@@H]12)OC (some centres not stated)
GI50 [1]: > 100 µM (inactive) | GI50 [2]: > 100 µM (inactive) | GI50 [3]: 91.6 µM (inactive) | GI50 [4]: > 100 µM (inactive) | GI50 [5]: > 100 µM (inactive) | GI50 [6]: > 100 µM (inactive) | GI50 [7]: 56.6 µM (inactive) | GI50 [8]: > 100 µM (inactive) | GI50 [9]: > 100 µM (inactive) | GI50 [10]: > 100 µM (inactive) | GI50 [11]: > 100 µM (inactive) | GI50 [12]: > 100 µM (inactive) | GI50 [13]: > 100 µM (inactive) | GI50 [14]: > 100 µM (inactive) | GI50 [15]: > 100 µM (inactive) | GI50 [16]: > 100 µM (inactive) | GI50 [17]: > 100 µM (inactive) | GI50 [18]: 49.5 µM (inactive) | GI50 [19]: > 100 µM (inactive) | GI50 [20]: > 100 µM (inactive) | GI50 [21]: > 100 µM (inactive) | GI50 [22]: > 100 µM (inactive) | GI50 [23]: > 100 µM (inactive) | GI50 [24]: 76.6 µM (inactive) | GI50 [25]: 36.7 µM (inactive) | GI50 [26]: > 100 µM (inactive) | GI50 [27]: > 100 µM (inactive) | GI50 [28]: 73.5 µM (inactive) | GI50 [29]: > 100 µM (inactive) | GI50 [30]: > 100 µM (inactive)

CC(=O)OCC(=O)[C@@]1(O)CC[C@H]2[C@@H]3CCC4=CC(=O)C=C[C@]4(C)[C@@]3(F)[C@@H](O)C[C@@]21C [ISOFLUPREDONE ACETATE]
GI50 [17]: 65.3 µM (inactive)

COC(=O)C1=C2SCc3cccc(c3)CSC3=C(C(=O)OC)SC(=C(S2)S1)S3
GI50 [1]: > 100 µM (inactive) | GI50 [4]: > 100 µM (inactive) | GI50 [5]: 24.7 µM (inactive) | GI50 [6]: > 100 µM (inactive) | GI50 [7]: > 100 µM (inactive) | GI50 [8]: 40.2 µM (inactive) | GI50 [31]: > 100 µM (inactive) | GI50 [32]: > 100 µM (inactive) | GI50 [9]: 82.6 µM (inactive) | GI50 [10]: > 100 µM (inactive) | GI50 [33]: > 100 µM (inactive) | GI50 [11]: 32.7 µM (inactive) | GI50 [34]: > 100 µM (inactive) | GI50 [35]: > 100 µM (inactive) | GI50 [12]: > 100 µM (inactive) | GI50 [36]: > 100 µM (inactive) | GI50 [37]: > 100 µM (inactive) | GI50 [14]: > 100 µM (inactive) | GI50 [38]: > 100 µM (inactive) | GI50 [15]: > 100 µM (inactive) | GI50 [16]: > 100 µM (inactive) | GI50 [17]: 35.5 µM (inactive) | GI50 [18]: 25.9 µM (inactive) | GI50 [19]: > 100 µM (inactive) | GI50 [39]: > 100 µM (inactive) | GI50 [20]: > 100 µM (inactive) | GI50 [40]: 65.9 µM (inactive) | GI50 [21]: > 100 µM (inactive) | GI50 [22]: > 100 µM (inactive) | GI50 [23]: > 100 µM (inactive) | GI50 [41]: > 100 µM (inactive) | GI50 [42]: > 100 µM (inactive) | GI50 [43]: > 100 µM (inactive) | GI50 [25]: > 100 µM (inactive) | GI50 [44]: > 100 µM (inactive) | GI50 [45]: > 100 µM (inactive) | GI50 [46]: 35.2 µM (inactive) | GI50 [47]: > 100 µM (inactive) | GI50 [28]: > 100 µM (inactive) | GI50 [29]: > 100 µM (inactive) | GI50 [30]: > 100 µM (inactive) | GI50 [48]: > 100 µM (inactive)

CCOP(=O)(OCC)C(c1ccc(F)cc1)N(C(=O)NC(F)(F)F)c1ccc(OC)cc1 (configuration not stated)
GI50 [1]: > 100 µM (inactive) | GI50 [49]: > 100 µM (inactive) | GI50 [3]: > 100 µM (inactive) | GI50 [4]: > 100 µM (inactive) | GI50 [5]: > 100 µM (inactive) | GI50 [6]: > 100 µM (inactive) | GI50 [7]: > 100 µM (inactive) | GI50 [8]: > 100 µM (inactive) | GI50 [31]: > 100 µM (inactive) | GI50 [32]: > 100 µM (inactive) | GI50 [9]: > 100 µM (inactive) | GI50 [10]: > 100 µM (inactive) | GI50 [33]: > 100 µM (inactive) | GI50 [34]: > 100 µM (inactive) | GI50 [12]: > 100 µM (inactive) | GI50 [50]: > 100 µM (inactive) | GI50 [36]: > 100 µM (inactive) | GI50 [13]: > 100 µM (inactive) | GI50 [14]: > 100 µM (inactive) | GI50 [38]: > 100 µM (inactive) | GI50 [15]: > 100 µM (inactive) | GI50 [16]: > 100 µM (inactive) | GI50 [18]: > 100 µM (inactive) | GI50 [51]: > 100 µM (inactive) | GI50 [19]: > 100 µM (inactive) | GI50 [39]: > 100 µM (inactive) | GI50 [52]: > 100 µM (inactive) | GI50 [40]: > 100 µM (inactive) | GI50 [23]: > 100 µM (inactive) | GI50 [24]: > 100 µM (inactive) | GI50 [41]: > 100 µM (inactive) | GI50 [42]: > 100 µM (inactive) | GI50 [43]: > 100 µM (inactive) | GI50 [25]: > 100 µM (inactive) | GI50 [44]: > 100 µM (inactive) | GI50 [45]: > 100 µM (inactive) | GI50 [53]: > 100 µM (inactive) | GI50 [26]: > 100 µM (inactive) | GI50 [54]: > 100 µM (inactive) | GI50 [55]: > 100 µM (inactive) | GI50 [46]: > 100 µM (inactive) | GI50 [27]: > 100 µM (inactive) | GI50 [56]: > 100 µM (inactive) | GI50 [47]: > 100 µM (inactive) | GI50 [57]: > 100 µM (inactive) | GI50 [58]: > 100 µM | GI50 [28]: > 100 µM (inactive) | GI50 [29]: > 100 µM (inactive) | GI50 [30]: > 100 µM (inactive) | GI50 [48]: > 100 µM (inactive)

CC(C)(Oc1ccc2c(=O)cc(-c3ccccc3)oc2c1)C(=O)N1CCN(c2ccccc2)CC1
GI50 [1]: 1.47 µM (inactive) | GI50 [3]: 3.24 µM (inactive) | GI50 [5]: 6.46 µM (inactive) | GI50 [6]: 2.6 µM (inactive) | GI50 [7]: 3.56 µM (inactive) | GI50 [31]: 6.81 µM (inactive) | GI50 [32]: 2.52 µM (inactive) | GI50 [9]: 3.64 µM (inactive) | GI50 [10]: 5.89 µM (inactive) | GI50 [34]: 6.64 µM (inactive) | GI50 [12]: 3.23 µM (inactive) | GI50 [50]: 2.49 µM (inactive) | GI50 [36]: 4.71 µM (inactive) | GI50 [13]: 5.28 µM (inactive) | GI50 [14]: 6.12 µM (inactive) | GI50 [16]: 3.15 µM (inactive) | GI50 [17]: 3.05 µM (inactive) | GI50 [18]: 1.62 µM (inactive) | GI50 [51]: 4.84 µM (inactive) | GI50 [39]: 5.94 µM (inactive) | GI50 [52]: 5.5 µM (inactive) | GI50 [20]: > 10 µM (inactive) | GI50 [40]: 5.74 µM (inactive) | GI50 [21]: 3.2 µM (inactive) | GI50 [22]: 3.71 µM (inactive) | GI50 [42]: 4.95 µM (inactive) | GI50 [25]: 3.17 µM (inactive) | GI50 [44]: 5.55 µM (inactive) | GI50 [45]: 8.17 µM (inactive) | GI50 [26]: > 10 µM (inactive) | GI50 [54]: 4.08 µM (inactive) | GI50 [46]: 3.41 µM (inactive) | GI50 [27]: 5.57 µM (inactive) | GI50 [47]: 4.76 µM (inactive) | GI50 [57]: 4.16 µM (inactive) | GI50 [58]: 4.55 µM | GI50 [28]: 4.54 µM (inactive) | GI50 [29]: 3.42 µM (inactive) | GI50 [48]: 3.7 µM (inactive)
